From patent US9073813B2, “Process for the preparation of protoescigenin” (INSTYTUT FARMACEUTYCZNY, priority 2011, dated 2015)

Experiment: Thermal stability of the crystalline form (X-ray diffraction over temperature loop 25° C.→30 min at 110° C.→25° C.)
Format: physicochemical
Method: Protoescigenin monohydrate is stable under ambient conditions, up to 100° C. X-ray diffraction measurements of monohydrate were done at the following temperature loop: 25° C.→30 min at 110° C.→25° C.
X-ray powder diffraction (XRPD) studies were performed by means of the MiniFlex diffractometer (Rigaku Coporation, Tokyo Japan) using CuKα radiation (λ=1.54056 Å) with following parameters: • Scanning range 2θ: from 3° to 40° • Scanning speed: 0.5°/min • Measurement step: 2θ: 0.02° • Measurement temperature: ambient temperature • Detector: scintillator

- stable under ambient conditions, up to (temperature) (solid state, ambient conditions): up to 100 °C
SMILES: CC1(C)CC2C3=CCC4[C@@]5(C)CC[C@H](O)[C@](C)(CO)C5CC[C@@]4(C)[C@]3(C)C[C@@H](O)[C@@]2(CO)[C@@H](O)[C@@H]1O (some centres unmarked) [Protoescigenin monohydrate, protoescigenin monohydrate]
- form change on heating (X-ray diffraction) (after heating for 30 min at 110° C., loop 25° C.→110° C.→25° C.): changes to a different form, called form V
